Experimental data published in patent US11117859B1, “Pleuromutilin hippuric acid ester with antibacterial activity and a method of preparing the same” (SHAANXI UNIVERSITY OF SCIENCE AND TECHNOLOGY, priority 2021, dated 2021).

How the values were obtained:
Assay type in all cases: cell-based
[1] = tested on: multi-resistant Staphylococcus aureus 171; experiment: paper diffusion method drug sensitivity test, MRSA-171; details: for Zone of Inhibition: MRSA-171, 30 μg/tablet paper disc (6.35 mm), LB plate, 37° C., 24 h; for inhibitory effect (in words): multi-drug resistant Staphylococcus aureus 171, 30 μg/tablet
Description: (§1) The antimicrobial efficacy was determined by a paper diffusion method drug sensitivity test.
(§2) Experimental strains: multi-resistant Staphylococcus aureus 171, multi-resistant Staphylococcus aureus 575, multi-resistant Staphylococcus aureus 596. The experimental strain was identified by Huashan Hospital, Fudan University (Institute of Antibiotic of Fudan University).
(§3) Drug sensitive paper: The drug sensitive paper was a special drug sensitive paper with a diameter of 6.35 mm and a water absorption of 0.02 mL. The control drug was vancomycin (30 μg/tablet); the test drugs were pleuromutilin (30 μg/tablet), hippuric acid (30 μg/tablet) and pleuromutilin hippuric acid ester (30 μg/tablet).
(§4) Reagents: LB agar medium, LA broth medium, 0.5% DMSO solution.
(§5) The experimental strains were inoculated in non-selective medium and placed in air at 37° C. for 24 h. A single colony that grows well and inoculate it into broth medium was incubate at 35° C.±2° C. for 6 hours, and LA broth medium was used to calibrate the concentration of the bacterial solution to 0.5 Mie turbidimetric tube (1.5×10^8 CFU/mL). A bacterial suspension was obtained.
(§6) LB dry powder was weighed, sterilized at 103.4 Kpa, 121.3° C. high-pressure steam for 15 min, and then placed it in a 40° C.-50° C. water bath. A sterile empty plate (inner diameter 9 cm) was placed on the surface of the ultra-clean table water table, and […] was poured to the plate. The thickness of each plate was 3 mm to 4 mm. After the plate was cooled at room temperature, it was stored in the refrigerator at 2° C.-8° C. A sterile cotton swab was used to dip the bacterial solution and ti evenly coat the surface of the LB plate 3 times. After inoculation of the bacterial suspension, the LB plate was dried at room temperature for 3 min to 5 min. Sterile forceps were used to closely attach the antibacterial drug paper to the dish. The dish was put upside down and placed in a 37° C. incubator for 24 h. The results were observed by measuring the diameter. Taking 0.5% DMSO solution as a negative control, the antibacterial activity is expressed by the diameter of the inhibition zone. The inhibition zone ≥17 mm, sensitive; the inhibition zone of 15 mm-16 mm, intermediary; the inhibition zone ≤14 mm, drug resistance.

[2] = tested on: multi-resistant Staphylococcus aureus 575; experiment: paper diffusion method drug sensitivity test, MRSA-575; details: for Zone of Inhibition: MRSA-575, 30 μg/tablet paper disc (6.35 mm), LB plate, 37° C., 24 h; for inhibitory effect (in words): multi-drug resistant Staphylococcus aureus 575, 30 μg/tablet
Description: as §1, §2, §3, §4, §5, §6

[3] = tested on: multi-resistant Staphylococcus aureus 596; experiment: paper diffusion method drug sensitivity test, MRSA-596; details: for Zone of Inhibition: MRSA-596, 30 μg/tablet paper disc (6.35 mm), LB plate, 37° C., 24 h; for inhibitory effect (in words): multi-drug resistant Staphylococcus aureus 596, 30 μg/tablet
Description: as §1, §2, §3, §4, §5, §6

SMILES | Zone of Inhibition [1] | inhibitory effect (in words) [1] | Zone of Inhibition [2] | inhibitory effect (in words) [2] | Zone of Inhibition [3] | inhibitory effect (in words) [3]
O=C(O)CNC(=O)c1ccccc1 [Hippuric acid] | 0 mm | no inhibitory effect | 0 mm | no inhibitory effect | 0 mm | no inhibitory effect
C=C[C@]1(C)C[C@@H](OC(=O)COC(=O)CNC(=O)c2ccccc2)[C@]2(C)CC[C@@H](C)[C@@]3(CCC(=O)[C@@H]23)[C@@H](C)[C@@H]1O [Pleuromutilin hippuric acid ester, (3aS,4R,5S,6S,8R,9R,9aR,12R)-5-hydroxy-4,6,9,12-tetramethyl-1-oxo-6-vinyldecahydro-3a,9-propanocyclopenta[8]annulen-8-yl 2-(2-benzamidoacetoxy)acetate] | 14 mm | strong inhibitory effects | 15 mm | strong inhibitory effects | 25 mm | strong inhibitory effects
C=C[C@]1(C)C[C@@H](OC(=O)CO)[C@]2(C)[C@H](C)CC[C@]3(CCC(=O)[C@H]32)[C@@H](C)[C@@H]1O [Pleuromutilin] | 0 mm | no inhibitory effect | 0 mm | no inhibitory effect | 0 mm | no inhibitory effect
CN[C@H](CC(C)C)C(=O)N[C@H]1C(=O)N[C@@H](CC(N)=O)C(=O)N[C@H]2C(=O)N[C@H]3C(=O)N[C@H](C(=O)N[C@H](C(=O)O)c4cc(O)cc(O)c4-c4cc3ccc4O)[C@H](O)c3ccc(c(Cl)c3)Oc3cc2cc(c3O[C@@H]2O[C@H](CO)[C@@H](O)[C@H](O)[C@H]2O[C@H]2C[C@](C)(N)[C@H](O)[C@H](C)O2)Oc2ccc(cc2Cl)[C@H]1O [Vancomycin] | 15 mm |  | 17 mm |  | 23 mm | 
